# Results from PubChem BioAssay (NCI).
#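 A five-concentration, 48-hour dose response in 96-well plates underlies each endpoint, interpolated linearly between surrounding concentrations. At the GI50, growth is halved. TGI is the concentration that stops growth completely.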
# How the values were obtained:
# Experiment in all cases: NCI-60 cell line screen, 48 h
# [1] = test system: OVCAR-3 ovarian
# [2] = test system: NCI-H226 lung
# [3] = test system: A549 NSCLC
# [4] = test system: A498 renal
# [5] = test system: HCC-2998 colon
# [6] = test system: SF-295 CNS
# [7] = test system: UACC-62 melanoma
# [8] = test system: SNB-19 CNS
# [9] = test system: HL-60(TB) leukemia
# [10] = test system: HOP-62 NSCLC
# [11] = test system: OVCAR-4 ovarian
# [12] = test system: HCT-116 colon
# [13] = test system: MCF7 breast
# [14] = test system: PC-3 prostate
# [15] = test system: UACC-257 melanoma
# [16] = test system: SK-MEL-5 melanoma
# [17] = test system: COLO 205 colon
# [18] = test system: SK-MEL-28 melanoma
# [19] = test system: KM12 colon
# [20] = test system: MOLT-4 leukemia
# [21] = test system: U251 CNS
# [22] = test system: K-562 leukemia
# [23] = test system: MDA-N
# [24] = test system: M14 melanoma
# [25] = test system: SN12C renal
# [26] = test system: UO-31 renal
# [27] = test system: MDA-MB-231 breast
# [28] = test system: NCI-H460 lung
# [29] = test system: CAKI-1 renal
# [30] = test system: T-47D breast
# [31] = test system: MDA-MB-435
# [32] = test system: SW-620 colon
# [33] = test system: 786-0 renal
# [34] = test system: RPMI-8226 leukemia
# [35] = test system: DU-145 prostate
# [36] = test system: SK-MEL-2 melanoma
# [37] = test system: SNB-75 CNS
# [38] = test system: ACHN renal
# [39] = test system: RXF 393 renal
# [40] = test system: TK-10 renal
# [41] = test system: SK-OV-3 ovarian
# [42] = test system: LOX IMVI melanoma
# [43] = test system: NCI-H522 lung
# [44] = test system: CCRF-CEM leukemia
# [45] = test system: IGROV1 ovarian
# [46] = test system: SR leukemia
# [47] = test system: NCI/ADR-RES ovarian
# [48] = test system: HOP-92 NSCLC
# [49] = test system: SF-268 CNS
# [50] = test system: HT29 colon
# [51] = test system: BT-549 breast
# [52] = test system: OVCAR-5 ovarian
# [53] = test system: HCT-15 colon
# [54] = test system: MALME-3M melanoma
# [55] = test system: OVCAR-8 ovarian
# [56] = test system: SF-539 CNS
# [57] = test system: EKVX NSCLC
# [58] = test system: NCI-H23 lung
# [59] = test system: HS 578T breast
compound,measurement,setting,value
COC(=O)C1=C2SCc3ccc(cc3)CSC3=C(C(=O)OC)SC(=C(S2)S1)S3,TGI,[1],> 100000 nM
same,TGI,[2],> 100000 nM
same,TGI,[3],> 100000 nM
same,TGI,[4],> 100000 nM
same,TGI,[5],> 100000 nM
same,TGI,[6],> 100000 nM
same,TGI,[7],> 100000 nM
same,TGI,[8],> 100000 nM
same,TGI,[9],9510 nM
same,TGI,[10],> 100000 nM
same,TGI,[11],> 100000 nM
same,TGI,[12],> 100000 nM
same,TGI,[13],> 100000 nM
same,TGI,[14],> 100000 nM
same,TGI,[15],> 100000 nM
same,TGI,[16],> 100000 nM
same,TGI,[17],> 100000 nM
same,TGI,[18],> 100000 nM
same,TGI,[19],> 100000 nM
same,TGI,[20],> 100000 nM
same,TGI,[21],> 100000 nM
same,TGI,[22],> 100000 nM
same,TGI,[23],> 100000 nM
same,TGI,[24],> 100000 nM
same,TGI,[25],> 100000 nM
same,TGI,[26],> 100000 nM
same,TGI,[27],> 100000 nM
same,TGI,[28],> 100000 nM
same,TGI,[29],> 100000 nM
same,TGI,[30],> 100000 nM
same,TGI,[31],> 100000 nM
same,TGI,[32],> 100000 nM
same,TGI,[33],> 100000 nM
same,TGI,[34],> 100000 nM
same,TGI,[35],> 100000 nM
same,TGI,[36],> 100000 nM
same,TGI,[37],> 100000 nM
same,TGI,[38],> 100000 nM
same,TGI,[39],> 100000 nM
same,TGI,[40],> 100000 nM
same,TGI,[41],> 100000 nM
NC(=O)c1cccc(N2Cc3ccccc3OC3=C2C(=O)c2c(O)ccc(O)c2C3=O)c1,GI50,[1],233 nM
same,TGI,[1],646 nM
same,GI50,[2],2040 nM
same,TGI,[2],5950 nM
same,GI50,[3],2830 nM
same,TGI,[3],10100 nM
same,GI50,[4],2640 nM
same,TGI,[4],7210 nM
same,GI50,[5],1960 nM
same,TGI,[5],3640 nM
same,GI50,[6],2210 nM
same,TGI,[6],5990 nM
same,GI50,[7],319 nM
same,TGI,[7],1140 nM
same,GI50,[42],284 nM
same,TGI,[42],897 nM
same,GI50,[43],68.2 nM
same,TGI,[43],256 nM
same,GI50,[44],120 nM
same,TGI,[44],595 nM
same,GI50,[8],3000 nM
same,TGI,[8],10800 nM
same,GI50,[9],188 nM
same,TGI,[9],496 nM
same,GI50,[45],1190 nM
same,TGI,[45],3010 nM
same,GI50,[10],2140 nM
same,TGI,[10],5960 nM
same,GI50,[11],312 nM
same,TGI,[11],1130 nM
same,GI50,[46],88 nM
same,TGI,[46],912 nM
same,GI50,[12],267 nM
same,TGI,[12],963 nM
same,GI50,[13],327 nM
same,TGI,[13],1730 nM
same,GI50,[47],2130 nM
same,TGI,[47],35600 nM
same,GI50,[14],1280 nM
same,TGI,[14],4560 nM
same,GI50,[15],531 nM
same,TGI,[15],1730 nM
same,GI50,[48],270 nM
same,TGI,[48],752 nM
same,GI50,[49],1340 nM
same,TGI,[49],3910 nM
same,GI50,[16],1760 nM
same,TGI,[16],3840 nM
same,GI50,[17],112 nM
same,TGI,[17],298 nM
same,GI50,[18],433 nM
same,TGI,[18],1500 nM
same,GI50,[19],1880 nM
same,TGI,[19],4880 nM
same,GI50,[20],235 nM
same,TGI,[20],1090 nM
same,GI50,[50],302 nM
same,TGI,[50],1150 nM
same,GI50,[21],1510 nM
same,TGI,[21],4590 nM
same,GI50,[51],944 nM
same,TGI,[51],2410 nM
same,GI50,[22],164 nM
same,TGI,[22],1330 nM
same,GI50,[52],1280 nM
same,TGI,[52],2870 nM
same,GI50,[24],554 nM
same,TGI,[24],1970 nM
same,GI50,[25],1440 nM
same,TGI,[25],3400 nM
same,GI50,[26],138 nM
same,TGI,[26],344 nM
same,GI50,[27],342 nM
same,TGI,[27],1040 nM
same,GI50,[28],2340 nM
same,TGI,[28],6120 nM
same,GI50,[29],301 nM
same,TGI,[29],1130 nM
same,GI50,[53],224 nM
same,TGI,[53],724 nM
same,GI50,[54],194 nM
same,TGI,[54],614 nM
same,GI50,[55],304 nM
same,TGI,[55],1500 nM
same,GI50,[30],213 nM
same,TGI,[30],746 nM
same,GI50,[31],1080 nM
same,TGI,[31],2860 nM
same,GI50,[32],275 nM
same,TGI,[32],1030 nM
same,GI50,[33],276 nM
same,TGI,[33],986 nM
same,GI50,[34],319 nM
same,TGI,[34],1360 nM
same,GI50,[35],517 nM
same,TGI,[35],1640 nM
same,GI50,[56],1250 nM
same,TGI,[56],2630 nM
same,GI50,[57],1260 nM
same,TGI,[57],4090 nM
same,GI50,[58],1590 nM
same,TGI,[58],4500 nM
same,GI50,[36],1960 nM
same,TGI,[36],4790 nM
same,GI50,[37],1490 nM
same,TGI,[37],6670 nM
same,GI50,[59],3280 nM
same,TGI,[59],30800 nM
same,GI50,[38],165 nM
same,TGI,[38],485 nM
same,GI50,[39],189 nM
same,TGI,[39],433 nM
same,GI50,[40],221 nM
same,TGI,[40],682 nM
same,GI50,[41],3510 nM
same,TGI,[41],13000 nM
